Source: publication PMC5853648 (Biochemistry, 2017)

Tests used:
CidC [1] = biological target: T1, CidC (Staphylococcus aureus, UniProt Q6PST7); assay: tryptophan fluorescence quenching titration; type: binding
T1 sequence (Q6PST7 2-579): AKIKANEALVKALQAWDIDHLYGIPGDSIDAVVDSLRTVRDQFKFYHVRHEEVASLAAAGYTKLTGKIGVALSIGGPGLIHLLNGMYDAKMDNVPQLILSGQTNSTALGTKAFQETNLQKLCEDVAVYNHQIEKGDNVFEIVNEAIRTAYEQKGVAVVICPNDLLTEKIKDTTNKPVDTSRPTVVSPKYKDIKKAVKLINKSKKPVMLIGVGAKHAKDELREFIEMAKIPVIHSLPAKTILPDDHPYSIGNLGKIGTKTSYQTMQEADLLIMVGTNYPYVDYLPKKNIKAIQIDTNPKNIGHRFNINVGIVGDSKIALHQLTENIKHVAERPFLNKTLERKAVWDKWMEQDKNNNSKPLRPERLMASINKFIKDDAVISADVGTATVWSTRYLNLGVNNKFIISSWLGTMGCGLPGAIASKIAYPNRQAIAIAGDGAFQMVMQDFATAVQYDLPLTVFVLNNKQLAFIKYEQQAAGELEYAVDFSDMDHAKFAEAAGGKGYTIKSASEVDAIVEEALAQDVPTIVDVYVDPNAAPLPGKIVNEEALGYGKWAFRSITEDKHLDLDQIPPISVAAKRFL

CidC [2] = biological target: T1, CidC; assay: ferricyanide reduction assay, absorbance […] nm; type: biochemical

Row | Kd (CidC [1]) | IC50 (CidC [2]) | SMILES
1 | 0.0003 mM |  | Cc1ncc(C[n+]2csc(CCO[P@](=O)(O)OP(=O)(O)O)c2C)c(N)n1 [TPP]
2 |  | 10 mM | O=C(O)CC(O)(CC(=O)O)C(=O)O [citrate]
